# Results as given in the NIST ThermoML archive (doi:10.1021/je400874d).
# ± gives the expanded uncertainty stated by the source.
# Experiment: Molar enthalpy of transition or fusion
# Conditions: Crystal 1; DSC
row,Molar enthalpy of transition or fusion,SMILES
1,0.342 ± 0.0574 kcal/mol,"CCCCCCCCCCCC(=O)[O-].[K+] [dodecanoic acid, potassium salt]"
2,1.14 ± 0.0669 kcal/mol,CCCCC(=O)[O-].[K+] [potassium pentanoate]
3,0.375 ± 0.0526 kcal/mol,CCCCCCCCCCC(=O)[O-].[K+] [potassium undecanoate]
4,0.523 ± 0.043 kcal/mol,CCCCCCCC(=O)[O-].[K+] [potassium octanoate]
5,0.469 ± 0.0478 kcal/mol,CCCCCCCCC(=O)[O-].[K+] [potassium nonanoate]
6,0.402 ± 0.0502 kcal/mol,CCCCCCCCCC(=O)[O-].[K+] [potassium decanoate]
7,3.92 ± 0.117 kcal/mol,CC(=O)[O-].[K+] [potassium ethanoate]
8,0.922 ± 0.0359 kcal/mol,CCCCCC(=O)[O-].[K+] [potassium hexanoate]
9,4.88 ± 0.134 kcal/mol,CCC(=O)[O-].[K+] [potassium propanoate]
10,1.18 ± 0.0598 kcal/mol,CCCC(=O)[O-].[K+] [potassium butanoate]
11,0.804 ± 0.0813 kcal/mol,CCCCCCC(=O)[O-].[K+] [potassium heptanoate]
12,2.79 ± 0.1 kcal/mol,O=C[O-].[K+] [potassium formate]

# Same assay, conditions: Crystal 2; DSC
row,Molar enthalpy of transition or fusion,SMILES
1,2.79 ± 0.115 kcal/mol,"CCCCCCCCCCCC(=O)[O-].[K+] [dodecanoic acid, potassium salt]"
2,4.16 ± 0.134 kcal/mol,CCCCC(=O)[O-].[K+] [potassium pentanoate]
3,2.9 ± 0.108 kcal/mol,CCCCCCCCCCC(=O)[O-].[K+] [potassium undecanoate]
4,4.01 ± 0.131 kcal/mol,CCCCCCCC(=O)[O-].[K+] [potassium octanoate]
5,3.47 ± 0.141 kcal/mol,CCCCCCCCC(=O)[O-].[K+] [potassium nonanoate]
6,0.0704 ± 0.0234 kcal/mol,CC(=O)[O-].[K+] [potassium ethanoate]
7,3.98 ± 0.11 kcal/mol,CCCCCC(=O)[O-].[K+] [potassium hexanoate]
8,0.429 ± 0.0263 kcal/mol,CCC(=O)[O-].[K+] [potassium propanoate]
9,2.56 ± 0.0908 kcal/mol,CCCC(=O)[O-].[K+] [potassium butanoate]
10,4.22 ± 0.12 kcal/mol,CCCCCCC(=O)[O-].[K+] [potassium heptanoate]
11,0.137 ± 0.0311 kcal/mol,O=C[O-].[K+] [potassium formate]

# Same assay, conditions: Crystal 3; DSC
row,Molar enthalpy of transition or fusion,SMILES
1,1.31 ± 0.0574 kcal/mol,"CCCCCCCCCCCC(=O)[O-].[K+] [dodecanoic acid, potassium salt]"
2,0.0938 ± 0.0311 kcal/mol,CCCCC(=O)[O-].[K+] [potassium pentanoate]
3,2.15 ± 0.108 kcal/mol,CCCCCCCCCCC(=O)[O-].[K+] [potassium undecanoate]
4,2.4 ± 0.086 kcal/mol,CCCCCCCC(=O)[O-].[K+] [potassium octanoate]
5,3.75 ± 0.141 kcal/mol,CCCCCCCCC(=O)[O-].[K+] [potassium nonanoate]
6,0.0164 ± 0.0234 kcal/mol,CC(=O)[O-].[K+] [potassium ethanoate]
7,0.814 ± 0.0598 kcal/mol,CCCC(=O)[O-].[K+] [potassium butanoate]
8,3.14 ± 0.12 kcal/mol,CCCCCCC(=O)[O-].[K+] [potassium heptanoate]

# Same assay, conditions: Crystal 4; DSC
row,Molar enthalpy of transition or fusion,SMILES
1,2.28 ± 0.115 kcal/mol,"CCCCCCCCCCCC(=O)[O-].[K+] [dodecanoic acid, potassium salt]"
2,2.95 ± 0.108 kcal/mol,CCCCCCCCCCC(=O)[O-].[K+] [potassium undecanoate]
3,0.855 ± 0.0502 kcal/mol,CCCCCCCCCC(=O)[O-].[K+] [potassium decanoate]
4,0.166 ± 0.0311 kcal/mol,CCCC(=O)[O-].[K+] [potassium butanoate]

# Same assay, conditions: Crystal 5; DSC
row,Molar enthalpy of transition or fusion,SMILES
1,2.96 ± 0.115 kcal/mol,"CCCCCCCCCCCC(=O)[O-].[K+] [dodecanoic acid, potassium salt]"
2,1.36 ± 0.1 kcal/mol,CCCCCCCCCC(=O)[O-].[K+] [potassium decanoate]

# Experiment: not given
# Conditions: Crystal 1; DTA
row,Normal melting temperature,SMILES
1,399 ± 0.5 °C,"CCCCCCCCCCCC(=O)[O-].[K+] [dodecanoic acid, potassium salt]"
2,443.6 ± 0.5 °C,CCCCC(=O)[O-].[K+] [potassium pentanoate]
3,407.6 ± 0.5 °C,CCCCCCCCCCC(=O)[O-].[K+] [potassium undecanoate]
4,435.5 ± 0.5 °C,CCCCCCCC(=O)[O-].[K+] [potassium octanoate]
5,431.4 ± 0.5 °C,CCCCCCCCC(=O)[O-].[K+] [potassium nonanoate]
6,418.4 ± 0.5 °C,CCCCCCCCCC(=O)[O-].[K+] [potassium decanoate]
7,305.5 ± 0.5 °C,CC(=O)[O-].[K+] [potassium ethanoate]
8,450.5 ± 0.8 °C,CCCCCC(=O)[O-].[K+] [potassium hexanoate]
9,363.8 ± 0.5 °C,CCC(=O)[O-].[K+] [potassium propanoate]
10,394 ± 0.5 °C,CCCC(=O)[O-].[K+] [potassium butanoate]
11,449 ± 1 °C,CCCCCCC(=O)[O-].[K+] [potassium heptanoate]
12,169.1 ± 0.5 °C,O=C[O-].[K+] [potassium formate]

# Same assay, conditions: Crystal 2; DTA
row,Triple point temperature,SMILES
1,543.4 ± 0.5 K,"CCCCCCCCCCCC(=O)[O-].[K+] [dodecanoic acid, potassium salt]"
2,585.4 ± 0.5 K,CCCCC(=O)[O-].[K+] [potassium pentanoate]
3,542.5 ± 0.5 K,CCCCCCCCCCC(=O)[O-].[K+] [potassium undecanoate]
4,562.8 ± 0.5 K,CCCCCCCC(=O)[O-].[K+] [potassium octanoate]
5,544.9 ± 0.5 K,CCCCCCCCC(=O)[O-].[K+] [potassium nonanoate]
6,546.5 ± 0.5 K,CCCCCCCCCC(=O)[O-].[K+] [potassium decanoate]
7,425 ± 1 K,CC(=O)[O-].[K+] [potassium ethanoate]
8,582.4 ± 0.5 K,CCCCCC(=O)[O-].[K+] [potassium hexanoate]
9,352.1 ± 0.5 K,CCC(=O)[O-].[K+] [potassium propanoate]
10,623.1 ± 0.5 K,CCCC(=O)[O-].[K+] [potassium butanoate]
11,571 ± 0.5 K,CCCCCCC(=O)[O-].[K+] [potassium heptanoate]
12,415.8 ± 0.5 K,O=C[O-].[K+] [potassium formate]

# Same assay, conditions: Crystal 3; DTA
row,Triple point temperature,SMILES
1,489 ± 1 K,"CCCCCCCCCCCC(=O)[O-].[K+] [dodecanoic acid, potassium salt]"
2,397.6 ± 0.5 K,CCCCC(=O)[O-].[K+] [potassium pentanoate]
3,410 ± 1 K,CCCCCCCCCCC(=O)[O-].[K+] [potassium undecanoate]
4,327.8 ± 0.5 K,CCCCCCCC(=O)[O-].[K+] [potassium octanoate]
5,367.6 ± 0.5 K,CCCCCCCCC(=O)[O-].[K+] [potassium nonanoate]
6,528 ± 1 K,CCCCCCCCCC(=O)[O-].[K+] [potassium decanoate]
7,331.8 ± 0.5 K,CC(=O)[O-].[K+] [potassium ethanoate]
8,550 ± 1 K,CCCC(=O)[O-].[K+] [potassium butanoate]
9,333.7 ± 0.5 K,CCCCCCC(=O)[O-].[K+] [potassium heptanoate]

# Same assay, conditions: Crystal 4; DTA
row,Triple point temperature,SMILES
1,405.5 ± 0.5 K,"CCCCCCCCCCCC(=O)[O-].[K+] [dodecanoic acid, potassium salt]"
2,354.6 ± 0.5 K,CCCCCCCCCCC(=O)[O-].[K+] [potassium undecanoate]
3,383 ± 1 K,CCCCCCCCCC(=O)[O-].[K+] [potassium decanoate]
4,454.7 ± 0.5 K,CCCC(=O)[O-].[K+] [potassium butanoate]

# Same assay, conditions: Crystal 5; DTA
row,Triple point temperature,SMILES
1,328.1 ± 0.5 K,"CCCCCCCCCCCC(=O)[O-].[K+] [dodecanoic acid, potassium salt]"
2,346.3 ± 0.5 K,CCCCCCCCCC(=O)[O-].[K+] [potassium decanoate]
